Experimental data from patent US20250368611A1, “METHOD FOR PREPARING BERAPROST 314-D SODIUM” (YS Life Science Co., Ltd., priority 2024, published 2025).
Entries after “also recorded” stand apart in the source; their conditions may differ.

Assays:
Raji-luc tumor cells = experiment: CAR T-cell efficacy in NSG mice bearing Raji-luc tumors (IVIS imaging); assay type: in vivo; details: 0.3, 0.2 or 0.15 mg/kg/d BID for 14 days; Day 15
Experimental: The effects if any, of CTO1681 on CAR T-cell activity in vivo were measured. Human T-cells expressing CD19-CD28-CD3Z CAR construct was used in this experiment. 6-7 week old NSG™ (NOD SCID gamma) mice were engrafted with 1×10^6 luciferase (luc) expressing Raji tumor cells (herein referred to as “Raji-luc” tumor cells) each on Day 1 to allow for tumor growth over a 7-day period prior to the commencement of the treatment. CAR T-cell infusion was performed intravenously via lateral tail vein on (5×10^6 CD19 CAR T-cells generated from healthy donors). NSG mice are severely immunodeficient, which facilitates ready tumor engraftment and subsequent clearance due to CAR T-cells can be measured. Tumor growth after engraftment and subsequent clearance were monitored once weekly (starting on Day 7) using IVIS imaging to detect luciferase signal in living mice. CTO1681 administration began on Day 8, two days before CAR T-cell infusion, with injections twice a day for 14 days. Mice received total daily CTO1681 doses of 0.3 mg/kg/d, 0.2 mg/kg/d, or 0.15 mg/kg/d via two injections (BID). CTO1681 doses were selected based on the pharmacokinetic profile of the drug in mice. […] Mice were monitored for body temperature and health evaluations (weight, movement, posture, fur condition, etc.) throughout the entire study.

[1] = test system: CD19+ Raji lymphoma target cells; experiment: CD19 CAR T-cell killing of Raji target cells, flow cytometry (7-AAD); assay type: cell-based, human; details: all concentrations 0.36-225 nM; 24 hours co-culture
Description: The impact of CTO1681 on the efficacy of CD19-targeting CAR T-cells in vitro as well as its ability to reduce CRS-inducing pro-inflammatory cytokine levels in the presence of CAR T-cells and tumor cells in vitro were explored. […] CD3 T cells were sorted from one healthy donor PBMCs, stimulated for a short period of time and transduced with CD19 CAR-T lentivirus (LV) containing CD28 and CD3ζ domains. CD19 CAR T-cells were expanded for 6 days and used in the assay. CD19-targeting CD3 T-cells were treated with 5 increasing concentrations of CTO1681 (0.36 nM, 1.8 nM, 9 nM, 45 nM, and 225 nM) or vehicle for 30 minutes, prior to, and during co-culture with CD19+ Raji lymphoma target cells. Media alone, vehicle, and positive control (dexamethasone) wells were included. […] Following incubation, supernatant was collected and levels of pro-inflammatory cytokines IL-6 and TNF-α were measured by multiplex Luminex assay and […] was measured via time-resolved fluorescence resonance energy transfer (TR-FRET) assay. These cytokines were selected for quantification as they are early cytokines released following CAR T-cell infusion in vivo that causes hyperactivation of the immune system resulting in acute systemic inflammation, CRS, multiorgan failure, and possible death. […]

TNF-α = experiment: CD19 CAR T-cell / Raji co-culture: TNF-α in supernatant by multiplex Luminex; assay type: cell-based, human
Description: (§1) The impact of CTO1681 on the efficacy of CD19-targeting CAR T-cells in vitro as well as its ability to reduce CRS-inducing pro-inflammatory cytokine levels in the presence of CAR T-cells and tumor cells in vitro were explored. […] CD3 T cells were sorted from one healthy donor PBMCs, stimulated for a short period of time and transduced with CD19 CAR-T lentivirus (LV) containing CD28 and CD3ζ domains. CD19 CAR T-cells were expanded for 6 days and used in the assay. CD19-targeting CD3 T-cells were treated with 5 increasing concentrations of CTO1681 (0.36 nM, 1.8 nM, 9 nM, 45 nM, and 225 nM) or vehicle for 30 minutes, prior to, and during co-culture with CD19+ Raji lymphoma target cells. Media alone, vehicle, and positive control (dexamethasone) wells were included. Following initial treatment, CAR T-cells (Effectors) were co-cultured with fluorescently labeled CD19+ Raji tumor cells (Target cells) at 3 different Effector:Target cell ratios (10:1, 5:1 and 1:1) and treated with 5 different concentrations of CTO1681 or vehicle for 24 hours. Target cells (Raji cells) were fluorescently labelled with CPD (eBioscience™ Cell Proliferation Dye eFluor™) prior to co-culture to distinguish the Raji cells from the effector cells and allow for analysis of target viability by flow cytometry. Following incubation, supernatant was collected and levels of pro-inflammatory cytokines IL-6 and TNF-α were measured by multiplex Luminex assay and […] was measured via time-resolved fluorescence resonance energy transfer (TR-FRET) assay. These cytokines were selected for quantification as they are early cytokines released following CAR T-cell infusion in vivo that causes hyperactivation of the immune system resulting in acute systemic inflammation, CRS, multiorgan failure, and possible death. In addition, flow cytometry was used to measure the level of Raji tumor/target cell death following CAR T treatment across CTO1681 conditions to measure impact of CTO1681 with CAR T-cell efficacy. Co-cultures were stained with viability dye 7-AAD for measuring viability.

[2] = Health evaluations in NSG tumor-bearing mice; assay type: in vivo; details: 0.3, 0.2 or 0.15 mg/kg/d BID for 14 days with CAR T-cells
Experimental: Tumor growth after engraftment and subsequent clearance were monitored once weekly (starting on Day 7) using IVIS imaging to detect luciferase signal in living mice. CTO1681 administration began on Day 8, two days before CAR T-cell infusion, with injections twice a day for 14 days. Mice received total daily CTO1681 doses of 0.3 mg/kg/d, 0.2 mg/kg/d, or 0.15 mg/kg/d via two injections (BID). CTO1681 doses were selected based on the pharmacokinetic profile of the drug in mice. Control groups included mice receiving Raji-luc tumor cells without CAR T-cell treatment, mice receiving Raji-luc tumor cells and a CAR T-cell infusion, and mice receiving Raji-luc tumor cells with vehicle treatments. Mice were monitored for body temperature and health evaluations (weight, movement, posture, fur condition, etc.) throughout the entire study.

IL-6 = experiment: CD19 CAR T-cell / Raji co-culture: IL-6 in supernatant by multiplex Luminex; assay type: cell-based, human
Description: as §1

IFN-γ = experiment: CD19 CAR T-cell / Raji co-culture: IFN-γ in supernatant by TR-FRET; assay type: cell-based, human
Description: as §1

[3] = 10:1 ratio of Effectors to Target cells, 0.36-225 nM, 24 hours
[4] = CAR T-cells:Raji cells 10:1, 0.36-225 nM
[5] = across three ratios of CAR-T cells to Raji cells (10:1, 5:1, 1:1)

CC#CC[C@H](C)[C@H](O)/C=C/[C@@H]1[C@H]2c3cccc(CCCC(=O)[O-])c3O[C@H]2C[C@H]1O.[Na+] [CTO1681, sodium 4-((1R,2R,3aS,8bS)-2-hydroxy-1-((3S,4S,E)-3-hydroxy-4-methyloct-1-en-6-yn-1-yl)-2,3,3a,8b-tetrahydro-1H-cyclopenta[b]benzofuran-5-yl)butanoate]
Effect on CD19 CAR T-cell activity (reduction of tumor burden, luciferase signal) (Raji-luc tumor cells): did not affect; also recorded: does not interfere
Effect on tumor/target cell killing by CD19-directed CAR T-cells [1]: did not impact or interfere; also recorded: absence of an effect
Maximum reduction TNF-α (TNF-α; [3]): approximately 50%
Effect on TNF-α levels (TNF-α; [4]): dose-dependently reduced; also recorded: dose-dependently lowers
TNF-α with increasing concentrations (TNF-α; [5]): reduction
Clinical morbidities, including weight loss or limb movement [2]: did not cause any increase
Maximum reduction IL-6 (IL-6; [3]): ~23%
Effect on IL-6 levels (IL-6; [4]): dose-dependently reduced; also recorded: dose-dependently lowers
IL-6 with increasing concentrations (IL-6; [5]): reduction
IFN-γ (IFN-γ; [3]): ~26%
Effect on IFN-γ levels (IFN-γ; [4]): dose-dependently reduced; also recorded: dose-dependently lowers
IFN-γ (IFN-γ; [5]): reduction
